Laboratory results: ChEMBL document CHEMBL3044637, “Microsomal delta 8,14-sterol delta 14-reductase in higher plants. Characterization and inhibition by analogues of a presumptive carbocationic intermediate of the reduction reaction” (Eur J Biochem, 1989)

Legend:
[1] = target: T1, Cycloeucalenol cycloisomerase (Zea mays, UniProt B6TK44); experiment: Inhibition of Zea mays (maize) cycloeucalenol-obtusifolial isomerase
T1 sequence (B6TK44 whole entry): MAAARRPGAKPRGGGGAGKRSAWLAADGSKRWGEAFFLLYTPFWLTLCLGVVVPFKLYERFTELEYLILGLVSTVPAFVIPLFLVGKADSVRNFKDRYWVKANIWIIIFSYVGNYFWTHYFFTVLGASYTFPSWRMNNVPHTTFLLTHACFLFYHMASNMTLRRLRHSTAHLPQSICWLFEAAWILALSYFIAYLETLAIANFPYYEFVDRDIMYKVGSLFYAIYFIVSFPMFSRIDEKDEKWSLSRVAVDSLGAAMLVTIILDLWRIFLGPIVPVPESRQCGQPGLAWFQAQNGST

Sterol-8,7-isomerase = target: T2, Sterol-8,7-isomerase (Zea mays, UniProt Q2TU57); experiment: Inhibition of Zea mays (maize) delta8,delta7-sterol isomerase
T2 sequence (Q2TU57 whole entry): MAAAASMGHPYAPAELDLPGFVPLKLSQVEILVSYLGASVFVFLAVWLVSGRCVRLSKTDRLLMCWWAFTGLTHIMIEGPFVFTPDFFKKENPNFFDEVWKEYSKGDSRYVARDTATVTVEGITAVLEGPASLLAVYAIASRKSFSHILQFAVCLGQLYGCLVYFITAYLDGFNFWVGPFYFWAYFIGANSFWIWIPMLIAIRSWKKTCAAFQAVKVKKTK

[2] = target: T3, Delta(14)-sterol reductase (Zea mays, UniProt B4FS76); experiment: Inhibition of Zea mays (maize) microsomal delta 8,14-steroid 14-reductase using delta 8,14-cholestadienol as substrate after 90 min by GC analysis
T3 sequence (B4FS76 whole entry): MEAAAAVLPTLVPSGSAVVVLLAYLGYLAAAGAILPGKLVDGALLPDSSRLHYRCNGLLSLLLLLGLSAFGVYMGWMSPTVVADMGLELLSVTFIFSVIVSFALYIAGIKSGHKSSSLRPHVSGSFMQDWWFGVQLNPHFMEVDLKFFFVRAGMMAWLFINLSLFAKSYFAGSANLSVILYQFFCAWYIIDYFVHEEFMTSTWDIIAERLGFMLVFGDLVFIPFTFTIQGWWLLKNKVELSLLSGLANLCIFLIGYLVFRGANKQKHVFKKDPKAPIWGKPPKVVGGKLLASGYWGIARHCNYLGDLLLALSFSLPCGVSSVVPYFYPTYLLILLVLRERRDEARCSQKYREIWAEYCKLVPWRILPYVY

[3] = target: T4, Sterol-8,7-isomerase (Zea mays) (UniProt Q2TU57); experiment: Inhibition of Zea mays (maize) delta8,delta7-sterol isomerase at 200 uM
T4 sequence (whole entry): T2 sequence (Q2TU57 whole entry)

[4] = target: T5, Cycloeucalenol cycloisomerase (Zea mays) (UniProt B6TK44); experiment: Inhibition of Zea mays (maize) cycloeucalenol-obtusifolial isomerase at 200 uM
T5 sequence (whole entry): T1 sequence (B6TK44 whole entry)

[5] = target: T6, Delta(14)-sterol reductase (Zea mays) (UniProt B4FS76); experiment: Inhibition of Zea mays (maize) microsomal delta 8,14-steroid 14-reductase using delta 8,14-cholestadienol as substrate at 200 uM after 90 min by GC analysis
T6 sequence (whole entry): T3 sequence (B4FS76 whole entry)

[6] = target: T6, Delta(14)-sterol reductase (Zea mays); experiment: Ratio of compound I50 to delta8,14-cholestadien-3beta-ol Km for Zea mays (maize) delta 8,14-steroid 14-reductase

| inhibition [3] [%] | inhibition [5] [%] | SMILES | IC50 [1] [nM] | IC50 (Sterol-8,7-isomerase) [nM] | IC50 [2] [nM] | inhibition [4] [%] | Ratio [6] |
| --- | --- | --- | --- | --- | --- | --- | --- |
| – | – | C[C@@H]1[C@@H](O)CC[C@]2(C)CNCC[C@@H]12 | 17500 | 10000 | 4500 | – | – |
| – | – | CC(Cc1ccc(C(C)(C)C)cc1)CN1CCCCC1 (stereo not drawn) [FENPROPIDIN] | 200 | 80 | 3000 | – | – |
| < 5 | < 5 | C[C@@H]1[C@@H](O)CC[C@]2(C)CCCC[C@@H]12 | – | – | – | < 5 | – |
| – | – | CC(Cc1ccc(C(C)(C)C)cc1)CN1C[C@@H](C)O[C@@H](C)C1 (stereo partly drawn) [FENPROPIMORPH] | 400 | 400 | 800 | – | – |
| – | – | CCCCCCCCCCCCN1CC[C@H]2[C@H](C)[C@@H](O)CC[C@]2(C)C1 | 100 | – | 90 | – | – |
| – | – | Clc1ccccc1CNC[C@H]1CC[C@H](CNCc2ccccc2Cl)CC1 | – | 500 | 40000 | < 5 | – |
| – | – | CC(Cc1ccc(C(C)(C)C)cc1)CN1CC[C@H]2[C@H](C)[C@@H](O)CC[C@]2(C)C1 (stereo partly drawn) | 100 | – | 70 | – | 6.5e-05 |
| – | – | CCCCCCCCCCCCCN1CC(C)OC(C)C1 (stereo not drawn) [TRIDEMORPH] | 400 | 400 | 25000 | – | – |
| – | – | C=C(CC[C@@H](C)[C@H]1CCN=C2C3=C(CC[C@@]21C)[C@@]1(C)CC[C@H](O)C[C@@H]1CC3)C(C)C | – | 800 | 30 | < 5 | 0.00015 |
| – | – | C[C@@H]1[C@@H](O)CC[C@]2(C)CN(Cc3ccccc3)CC[C@@H]12 | 100 | 130 | 80 | – | – |
| – | – | CC(C)CCCC(C)CCCC(C)N1CC[C@H]2[C@H](C)[C@@H](O)CC[C@]2(C)C1 (stereo partly drawn) | 25 | 200 | 300 | – | – |
